According to the supplement of paper PMC10307832:

Key:
Assay in all cases: relative viability (nuclei count vs DMSO), 5 days (fraction); higher = more cells survive
SW 1573 = test system: SW 1573
Outline: (§1)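 Each reported value is a median over duplicate plates. It expresses relative viability: treated-well nuclei count divided by vehicle-well nuclei count. Lung cancer cell lines in 1536-well plates were dosed by pin tool a day after seeding, alone with one drug or with a fixed anchor-drug dose plus five library-drug doses (not always all listed) in √10 steps, and nuclei were counted after 5 days.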

EMC-BAC-2 = test system: EMC-BAC-2
Outline: as §1

NCI-H358 = test system: NCI-H358
Outline: as §1

LU99A = test system: LU99A
Outline: as §1

NCI-H1395 = test system: NCI-H1395
Outline: as §1

LC-2-ad = test system: LC-2-ad
Outline: as §1

NCI-H2023 = test system: NCI-H2023
Outline: as §1

NCI-H1734 = test system: NCI-H1734
Outline: as §1

NCI-H2126 = test system: NCI-H2126
Outline: as §1

SW 900 = test system: SW 900
Outline: as §1

NCI-H1915 = test system: NCI-H1915
Outline: as §1

NCI-H1437 = test system: NCI-H1437
Outline: as §1

HCC-44 = test system: HCC-44
Outline: as §1

HCC-15 = test system: HCC-15
Outline: as §1

NCI-H727 = test system: NCI-H727
Outline: as §1

NCI-H2170 = test system: NCI-H2170
Outline: as §1

NCI-H1755 = test system: NCI-H1755
Outline: as §1

NCI-H3122 = test system: NCI-H3122
Outline: as §1

HOP-62 = test system: HOP-62
Outline: as §1

BEN = test system: BEN
Outline: as §1

NCI-H650 = test system: NCI-H650
Outline: as §1

`Cc1csc(=NC2CCCCC2)n1/N=C/c1ccc(O)c(O)c1O` [MIM1] + CC(=O)Nc1cccc(-n2c(=O)n(C3CC3)c(=O)c3c(Nc4ccc(I)cc4F)n(C)c(=O)c(C)c32)c1 [Trametinib] (partner 0.02 µM) was tested, and the relative viability (SW 1573; first compound 0.2 µM) was 0.647, the relative viability (SW 1573; first compound 0.6325 µM) was 0.574 and the relative viability (SW 1573; first compound 2 µM) was 0.553. The relative viability (SW 1573; first compound 6.325 µM) was 0.361, the relative viability (SW 1573; first compound 20 µM) was 0.13 and the relative viability (EMC-BAC-2; first compound 0.2 µM) was 0.889. It also gave a relative viability (EMC-BAC-2; first compound 0.6325 µM) of 0.799, a relative viability (EMC-BAC-2; first compound 2 µM) of 0.702 and a relative viability (EMC-BAC-2; first compound 6.325 µM) of 0.73. The relative viability (EMC-BAC-2; first compound 20 µM) was 0.355, the relative viability (NCI-H358; first compound 0.2 µM) was 0.149 and the relative viability (NCI-H358; first compound 0.6325 µM) was 0.15. It also gave a relative viability (NCI-H358; first compound 2 µM) of 0.119, a relative viability (NCI-H358; first compound 6.325 µM) of 0.116 and a relative viability (NCI-H358; first compound 20 µM) of 0.133. The relative viability (LU99A; first compound 0.2 µM) was 0.571, the relative viability (LU99A; first compound 0.6325 µM) was 0.611 and the relative viability (LU99A; first compound 2 µM) was 0.604. For the same compound, the relative viability (LU99A; first compound 6.325 µM) was 0.469, the relative viability (LU99A; first compound 20 µM) was 0.164 and the relative viability (NCI-H1395; first compound 0.2 µM) was 0.976. It also gave a relative viability (NCI-H1395; first compound 0.6325 µM) of 1.04, a relative viability (NCI-H1395; first compound 2 µM) of 0.937 and a relative viability (NCI-H1395; first compound 6.325 µM) of 0.812. The relative viability (NCI-H1395; first compound 20 µM) was 0.54, the relative viability (LC-2-ad; first compound 0.2 µM) was 0.904 and the relative viability (LC-2-ad; first compound 0.6325 µM) was 0.941. For the same compound, the relative viability (LC-2-ad; first compound 2 µM) was 0.913, the relative viability (LC-2-ad; first compound 6.325 µM) was 0.529 and the relative viability (LC-2-ad; first compound 20 µM) was 0.739. For the same compound, the relative viability (NCI-H2023; first compound 0.2 µM) was 0.505, the relative viability (NCI-H2023; first compound 0.6325 µM) was 0.562 and the relative viability (NCI-H2023; first compound 2 µM) was 0.52. For the same compound, the relative viability (NCI-H2023; first compound 6.325 µM) was 0.247, the relative viability (NCI-H2023; first compound 20 µM) was 0.0881 and the relative viability (NCI-H1734; first compound 0.2 µM) was 0.786. It also gave a relative viability (NCI-H1734; first compound 0.6325 µM) of 0.676, a relative viability (NCI-H1734; first compound 2 µM) of 0.607 and a relative viability (NCI-H1734; first compound 6.325 µM) of 0.583. The relative viability (NCI-H1734; first compound 20 µM) was 0.183, the relative viability (NCI-H2126; first compound 0.2 µM) was 0.553 and the relative viability (NCI-H2126; first compound 0.6325 µM) was 0.579. For the same compound, the relative viability (NCI-H2126; first compound 2 µM) was 0.598, the relative viability (NCI-H2126; first compound 6.325 µM) was 0.503 and the relative viability (NCI-H2126; first compound 20 µM) was 0.388. For the same compound, the relative viability (SW 900; first compound 0.2 µM) was 0.831, the relative viability (SW 900; first compound 0.6325 µM) was 0.886 and the relative viability (SW 900; first compound 2 µM) was 0.718. It also gave a relative viability (SW 900; first compound 6.325 µM) of 0.196, a relative viability (SW 900; first compound 20 µM) of 0.21 and a relative viability (NCI-H1915; first compound 0.2 µM) of 0.31. The relative viability (NCI-H1915; first compound 0.6325 µM) was 0.27, the relative viability (NCI-H1915; first compound 2 µM) was 0.279 and the relative viability (NCI-H1915; first compound 6.325 µM) was 0.314. For the same compound, the relative viability (NCI-H1915; first compound 20 µM) was 0.357, the relative viability (NCI-H1437; first compound 0.2 µM) was 0.454 and the relative viability (NCI-H1437; first compound 0.6325 µM) was 0.475. The relative viability (NCI-H1437; first compound 2 µM) was 0.456, the relative viability (NCI-H1437; first compound 6.325 µM) was 0.239 and the relative viability (NCI-H1437; first compound 20 µM) was 0.237. The relative viability (HCC-44; first compound 0.2 µM) was 1.05, the relative viability (HCC-44; first compound 0.6325 µM) was 1.07 and the relative viability (HCC-44; first compound 2 µM) was 1.06. For the same compound, the relative viability (HCC-44; first compound 6.325 µM) was 1.13, the relative viability (HCC-44; first compound 20 µM) was 0.304 and the relative viability (HCC-15; first compound 0.2 µM) was 0.363. It also gave a relative viability (HCC-15; first compound 2 µM) of 0.372, a relative viability (HCC-15; first compound 6.325 µM) of 0.377 and a relative viability (HCC-15; first compound 20 µM) of 0.133. The relative viability (NCI-H727; first compound 0.2 µM) was 0.371, the relative viability (NCI-H727; first compound 0.6325 µM) was 0.407 and the relative viability (NCI-H727; first compound 2 µM) was 0.393. The relative viability (NCI-H727; first compound 6.325 µM) was 0.427, the relative viability (NCI-H727; first compound 20 µM) was 0.383 and the relative viability (NCI-H2170; first compound 0.2 µM) was 0.859. It also gave a relative viability (NCI-H2170; first compound 0.6325 µM) of 1.01, a relative viability (NCI-H2170; first compound 2 µM) of 0.914 and a relative viability (NCI-H2170; first compound 6.325 µM) of 0.609. The relative viability (NCI-H2170; first compound 20 µM) was 0.368, the relative viability (NCI-H1755; first compound 0.2 µM) was 0.719 and the relative viability (NCI-H1755; first compound 0.6325 µM) was 0.778. The relative viability (NCI-H1755; first compound 2 µM) was 0.808, the relative viability (NCI-H1755; first compound 6.325 µM) was 0.7 and the relative viability (NCI-H1755; first compound 20 µM) was 0.382. The relative viability (NCI-H3122; first compound 0.2 µM) was 0.239, the relative viability (NCI-H3122; first compound 0.6325 µM) was 0.244 and the relative viability (NCI-H3122; first compound 2 µM) was 0.261. It also gave a relative viability (NCI-H3122; first compound 6.325 µM) of 0.302, a relative viability (NCI-H3122; first compound 20 µM) of 0.125 and a relative viability (HOP-62; first compound 0.2 µM) of 0.386. It also gave a relative viability (HOP-62; first compound 0.6325 µM) of 0.417, a relative viability (HOP-62; first compound 2 µM) of 0.379 and a relative viability (HOP-62; first compound 6.325 µM) of 0.344. For the same compound, the relative viability (HOP-62; first compound 20 µM) was 0.266, the relative viability (BEN; first compound 0.2 µM) was 1.22 and the relative viability (BEN; first compound 0.6325 µM) was 1.1. The relative viability (BEN; first compound 2 µM) was 1.03, the relative viability (BEN; first compound 6.325 µM) was 1.1 and the relative viability (BEN; first compound 20 µM) was 0.578. The relative viability (NCI-H650; first compound 0.2 µM) was 1.02, the relative viability (NCI-H650; first compound 0.6325 µM) was 0.946 and the relative viability (NCI-H650; first compound 2 µM) was 1.07. The relative viability (NCI-H650; first compound 6.325 µM) was 0.939 and the relative viability (NCI-H650; first compound 20 µM) was 0.647.
